Laboratory results taken from patent US20190029301A1, “USE OF LONG-TERM FASTING MIMICKING AS DIETARY TREATMENT FOR MULTIPLE MYELOMA AND OTHER CANCERS” (UNIVERSITY OF SOUTHERN CALIFORNIA, priority 2016, published 2019).

What was measured:
[1] = Biaxin competes for the liver detoxification system that inactivates dexamethasone; cited from earlier work
multiple myeloma [2] = assay: free kappa light chain tumor marker in a multiple myeloma patient (case report); assay type: in vivo, human; settings: for response of free kappa light chain tumor marker / myeloma cells to the regimen: single patient, successive regimens 2006-2012 and later
multiple myeloma [3] = settings: cited from earlier work
[4] = cited from earlier work
[5] = side effects / peripheral neuropathy in the treated multiple myeloma patient; assay type: in vivo, human
Description: The patient had previously only used IV bortezomib, since it had been effective up to that point. Resistance to bortezomib is thought to result from overproduction of proteosomal subunits, that then require a higher concentration of drug before enough subunits are blocked to reduce the degradation of misfolded myeloma antibodies. The highest recommended dose of bortezomib is 1.3 mg/m^2, since the next higher dose of 1.7 mg/m^2 regularly produces grade 3-4 peripheral neuropathy. […] The patient reasoned that reducing the toxicity of bortezomib by using SubQ rather than IV and using the FMED to induce protective stress-resistance pathways in their neural and supporting glial cells might allow the use of “toxic” doses of bortezomib. […] The first two cycles were performed to verify whether the approach worked. […] Since the “toxic” bortezomib dose was essentially monotherapy, a different IMID was added for a third cycle in the hope that the patient's MM cells would be sensitive and one would be treating with at least two drugs. One third of patients resistant to lenalidomide respond to pomalidomide, which was thus added during the third cycle.

[6] = SubQ compared with IV bortezomib

## CC[C@H]1OC(=O)[C@H](C)[C@@H](O[C@H]2C[C@@](C)(OC)[C@@H](O)[C@H](C)O2)[C@H](C)[C@@H](O[C@@H]2O[C@H](C)C[C@H](N(C)C)[C@H]2O)[C@](C)(OC)C[C@@H](C)C(=O)[C@H](C)[C@@H](O)[C@]1(C)O [Biaxin]
[1]
  half-life of dexamethasone: increases

## Nc1cccc2c1CN(C1CCC(=O)NC1=O)C2=O (centres unmarked) [revlimid, lenalidomide]
Multiple myeloma [2]
  response of free kappa light chain tumor marker / myeloma cells to the regimen: developed resistance

## Nc1cccc2c1C(=O)N(C1CCC(=O)NC1=O)C2=O (centres unmarked) [pomalidomide]
Multiple myeloma [3]; lenalidomide-resistant patients
  fraction of patients resistant to lenalidomide that respond: One third

## CC(C)C[C@H](NC(=O)[C@H](CCc1ccccc1)NC(=O)CN1CCOCC1)C(=O)N[C@@H](Cc1ccccc1)C(=O)N[C@@H](CC(C)C)C(=O)[C@@]1(C)CO1 [carfilzomib]
Multiple myeloma [2]
  response of free kappa light chain tumor marker / myeloma cells to the regimen: ineffective

## CC(C)C[C@H](NC(=O)[C@H](Cc1ccccc1)NC(=O)c1cnccn1)B(O)O [bortezomib]
Multiple myeloma [3]; [6]
  effectiveness of SubQ versus IV administration: as effective as IV bortezomib
[4]; [6]
  side effects of SubQ versus IV administration: reduced side effects
[4]; dose of 1.7 mg/m^2
  peripheral neuropathy grade: 3-4
[5]; subcutaneous bortezomib 1.7 mg/m^2 with FMED
  side-effects: minimal side-effects
[5]; three cycles of SubQ "toxic" bortezomib + FMED (pomalidomide added in third cycle)
  peripheral neuropathy progression: only minor progression
Multiple myeloma [2]; SubQ bortezomib at "toxic" dose 1.7 mg/m^2 combined with FMED, FIG. 3
  tumor markers response: rapid drop
Multiple myeloma [2]; subcutaneous bortezomib 1.7 mg/m^2 with FMED, bortezomib-resistant patient
  bortezomib sensitivity: restore bortezomib sensitivity
